From patent US20060100175A1, “Novel therapeutic use of low molecular weight heparins” (Aventis Pharma S.A., priority 1998, published 2006) come the findings set out here.

Structures are written as SMILES.

For this test, the system named is motoneurons plated on astrocyte monolayers. The experiment in a line: Potentiation effect on the stimulation of the trophic motoneuron activity (SIN-1 treated astrocyte monolayers). Type of test: cell-based, rat. The conditions noted are these: SIN-1 2 mM, 1 hour on astrocyte monolayers. As for the experimental part: The cultures enriched in motoneurons are prepared using the centrifugation method described by R. L. Schnaar and A. E. Schaffner, J. Neurosci., 1, 204-217 (1981) and modified by W. Camu and C. E. Henderson, J. Neurosci. Methods, 44, 59-70 (1992). Spinal cords from E15 rat embryos are dissected sterilely and the spinal notochords are removed. They are then cut up and incubated for 15 minutes at 37° C. in PBS (phosphate buffered saline: 137 mM NaCl, 2.68 mM KCl, 6.45 mM Na2HPO4, 1.47 mM KH2PO4) to which 0.05% of trypsin has been added. The dissociation of the cells is completed by trituration with the end of a 1 ml pipette in the culture medium supplemented with bovine serum albumin (BSA) and with DNAase. The cell suspension is spread onto a band of 6.5% weight/volume metrizamide in L15 medium (sold by Gibco BRL) and centrifuged at 500 g for 15 minutes. The band of the interface containing the motoneurons is recovered. […]
The number of motoneurons is evaluated by counting labeled cells in a surface area of 1.44 cm^2 under a microscope giving a 200-fold magnification. The values are expressed as a number of motoneurons per cm^2 or a percentage of the number of motoneurons present in the cultures maintained with trophic factors (BDNF/NT5 […]). […]

On to `[NH-]c1c[n+](N2CCOCC2)no1` [SIN-1], for which the “Number of motoneurons % with respect to the control” value is given as 125%.
